Experiments:
Assay in all cases: cells
U2OS = type: functional, cell-based, U-2-OS; settings: Homo sapiens;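 note: growth inhibition of human U-2-OS cells, determined with a cell viability assay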
Description: SANGER: Inhibition of human U-2-OS cell growth in a cell viability assay.

MEL-HO = type: functional, cell-based; settings: Homo sapiens
Description: SANGER: Inhibition of human MEL-HO cell growth in a cell viability assay.

SW756 = type: functional, cell-based; settings: Homo sapiens;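 note: growth inhibition of human SW756 cells, read out with a cell viability assay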
Description: SANGER: Inhibition of human SW756 cell growth in a cell viability assay.

S-117 = type: functional, cell-based; settings: Homo sapiens
Description: SANGER: Inhibition of human S-117 cell growth in a cell viability assay.

COR-L23 = type: functional, cell-based; settings: Homo sapiens;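 note: cell viability assay measuring how strongly compounds suppress growth of COR-L23 cells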
Description: SANGER: Inhibition of human COR-L23 cell growth in a cell viability assay.

D-392MG = type: functional, cell-based; settings: Homo sapiens
SW626 = type: functional, cell-based; settings: Homo sapiens;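 note: growth inhibition of SW626 cells, measured with a cell viability assay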
Description: SANGER: Inhibition of human SW626 cell growth in a cell viability assay.

786-0 = type: functional, cell-based; settings: Homo sapiens
Description: SANGER: Inhibition of human 786-0 cell growth in a cell viability assay.

HPAF-II = type: functional, cell-based; settings: Homo sapiens;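 note: growth inhibition of HPAF-II cells, read out with a cell viability assay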
Description: SANGER: Inhibition of human HPAF-II cell growth in a cell viability assay.

M14 = type: functional, cell-based; settings: Homo sapiens;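 note: growth inhibition of M14 cells, read out with a cell viability assay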
Description: SANGER: Inhibition of human M14 cell growth in a cell viability assay.

KP-4 = type: functional, cell-based; settings: Homo sapiens;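 note: human KP-4 cells, with growth inhibition read out through a cell viability assay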
Description: SANGER: Inhibition of human KP-4 cell growth in a cell viability assay.

SK-MEL-30 = type: functional, cell-based; settings: Homo sapiens;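 note: growth inhibition of SK-MEL-30 cells, determined with a cell viability assay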
Description: SANGER: Inhibition of human SK-MEL-30 cell growth in a cell viability assay.

KU-19-19 = type: functional, cell-based; settings: Homo sapiens
Description: SANGER: Inhibition of human KU-19-19 cell growth in a cell viability assay.

Panc1005 = type: functional, cell-based; settings: Homo sapiens;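 note: growth inhibition of human PANC-10-05 cells, measured by a cell viability assay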
Description: SANGER: Inhibition of human PANC-10-05 cell growth in a cell viability assay.

EW-24 = type: functional, cell-based, Homo sapiens; settings: Homo sapiens, EW-24;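 note: human EW-24 cancer cell line, growth inhibition read out via a cell viability assay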
Description: SANGER: Inhibition of human EW-24 cell growth in a cell viability assay.

HT-29 = type: functional, cell-based; settings: Homo sapiens;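 note: growth inhibition of human HT-29 cells, read out by a cell viability assay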
Description: SANGER: Inhibition of human HT-29 cell growth in a cell viability assay.

RO82-W-1 = type: functional, cell-based; settings: Homo sapiens;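 note: growth inhibition of human RO82-W-1 cells, measured with a cell viability assay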
Description: SANGER: Inhibition of human RO82-W-1 cell growth in a cell viability assay.

FaDu = type: functional, cell-based; settings: Homo sapiens;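 note: cell viability readout of growth inhibition in FaDu cells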
Description: SANGER: Inhibition of human FADU cell growth in a cell viability assay.

KYSE-180 = type: functional, cell-based; settings: Homo sapiens;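 note: growth inhibition of KYSE-180 cells, read out with a cell viability assay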
Description: SANGER: Inhibition of human KYSE-180 cell growth in a cell viability assay.

DBTRG-05MG = type: functional, cell-based; settings: Homo sapiens;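 note: cell viability assay measuring growth inhibition of human DBTRG-05MG cells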
Description: SANGER: Inhibition of human DBTRG-05MG cell growth in a cell viability assay.

UACC-893 = type: functional, cell-based; settings: Homo sapiens
Description: SANGER: Inhibition of human UACC-893 cell growth in a cell viability assay.

SK-MEL3 = type: functional, cell-based, SK-MEL-3; settings: Homo sapiens;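 note: growth inhibition of human SK-MEL-3 cells, read out with a cell viability assay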
Description: SANGER: Inhibition of human SK-MEL-3 cell growth in a cell viability assay.

C3A = type: functional, cell-based; settings: Homo sapiens;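 note: growth inhibition of C3A human cells, quantified with a cell viability readout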
Description: SANGER: Inhibition of human C3A cell growth in a cell viability assay.

MDA-MB-361 = type: functional, cell-based; settings: Homo sapiens
LU-99A = type: functional, cell-based; settings: Homo sapiens;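 note: growth inhibition of LU-99A cells, read out with a cell viability assay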
Description: SANGER: Inhibition of human LU-99A cell growth in a cell viability assay.

8305C = type: functional, cell-based; settings: Homo sapiens
Description: SANGER: Inhibition of human 8305C cell growth in a cell viability assay.

PC-14 = type: functional, cell-based; settings: Homo sapiens;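 note: cell viability assay measuring inhibition of PC-14 cell growth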
Description: SANGER: Inhibition of human PC-14 cell growth in a cell viability assay.

SW780 = type: functional, cell-based; settings: Homo sapiens;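 note: growth inhibition of the cells, read out with a cell viability assay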
Description: SANGER: Inhibition of human SW780 cell growth in a cell viability assay.

DOK = type: functional, cell-based; settings: Homo sapiens;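 note: cell viability assay read-out, values reflect inhibition of cell growth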
Description: SANGER: Inhibition of human DOK cell growth in a cell viability assay.

COLO-792 = type: functional, cell-based; settings: Homo sapiens
Description: SANGER: Inhibition of human COLO-792 cell growth in a cell viability assay.

MIA PaCa-2 = type: functional, cell-based; settings: Homo sapiens;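 note: growth inhibition of MIA PaCa-2 cells, read out with a cell viability assay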
Description: SANGER: Inhibition of human MIA-PaCa-2 cell growth in a cell viability assay.

NCI-H1573 = type: functional, cell-based; settings: Homo sapiens;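 note: growth inhibition of NCI-H1573 cells, read out with a cell viability assay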
Description: SANGER: Inhibition of human NCI-H1573 cell growth in a cell viability assay.

SAOS-2 = type: functional, cell-based; settings: Homo sapiens;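 note: growth inhibition of human Saos-2 cells determined by a cell viability assay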
Description: SANGER: Inhibition of human Saos-2 cell growth in a cell viability assay.

KYSE-450 = type: functional, cell-based; settings: Homo sapiens;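 note: cell growth inhibition measured by a viability assay in human KYSE-450 cells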
Description: SANGER: Inhibition of human KYSE-450 cell growth in a cell viability assay.

C-33-A = type: functional, cell-based; settings: Homo sapiens;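 note: cell viability assay measuring growth inhibition of C-33-A cells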
Description: SANGER: Inhibition of human C-33-A cell growth in a cell viability assay.

EFM-19 = type: functional, cell-based; settings: Homo sapiens;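 note: growth inhibition of human EFM-19 cells, measured in a cell viability assay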
Description: SANGER: Inhibition of human EFM-19 cell growth in a cell viability assay.

HCC1569 = type: functional, cell-based; settings: Homo sapiens;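 note: growth inhibition of human HCC1569 cells, read out with a cell viability assay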
Description: SANGER: Inhibition of human HCC1569 cell growth in a cell viability assay.

Huh-7 = type: functional, cell-based; settings: Homo sapiens;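 note: HuH-7 cell growth inhibition, read out with a cell viability assay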
Description: SANGER: Inhibition of human HuH-7 cell growth in a cell viability assay.

NCI-H1703 = type: functional, cell-based; settings: Homo sapiens;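 note: growth inhibition of NCI-H1703 cells, read out via a cell viability assay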
Description: SANGER: Inhibition of human NCI-H1703 cell growth in a cell viability assay.

Ca-Ski = type: functional, cell-based; settings: Homo sapiens;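 note: cell viability assay measuring inhibition of Ca-Ski cell growth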
Description: SANGER: Inhibition of human Ca-Ski cell growth in a cell viability assay.

NCI-H1437 = type: functional, cell-based; settings: Homo sapiens;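 note: growth inhibition of human NCI-H1437 cells, read out by a cell viability assay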
Description: SANGER: Inhibition of human NCI-H1437 cell growth in a cell viability assay.

EFO-21 = type: functional, cell-based; settings: Homo sapiens;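 note: growth inhibition of EFO-21 cells measured with a viability assay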
Description: SANGER: Inhibition of human EFO-21 cell growth in a cell viability assay.

HEC-1 = type: functional, cell-based; settings: Homo sapiens;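 note: growth inhibition of the cell line, read out with a cell viability assay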
Description: SANGER: Inhibition of human HEC-1 cell growth in a cell viability assay.

NCI-H2009 = type: functional, cell-based; settings: Homo sapiens;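 note: cell viability assay measuring inhibition of NCI-H2009 cell growth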
Description: SANGER: Inhibition of human NCI-H2009 cell growth in a cell viability assay.

Hs-578T = type: functional, cell-based; settings: Homo sapiens
Description: SANGER: Inhibition of human Hs-578-T cell growth in a cell viability assay.

NCI-H1993 = type: functional, cell-based; settings: Homo sapiens;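 note: growth inhibition of the cancer cell line, assessed with a cell viability assay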
Description: SANGER: Inhibition of human NCI-H1993 cell growth in a cell viability assay.

HN = type: functional, cell-based; settings: Homo sapiens
Description: SANGER: Inhibition of human HN cell growth in a cell viability assay.

MKN-28 = type: functional, cell-based; settings: Homo sapiens;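 note: cell viability assay read-out, IC50 reflects suppression of growth of human MKN-28 cells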
Description: SANGER: Inhibition of human MKN28 cell growth in a cell viability assay.

HOP-92 = type: functional, cell-based; settings: Homo sapiens;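 note: cell viability readout, with IC50 reflecting inhibition of HOP-92 cell growth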
Description: SANGER: Inhibition of human HOP-92 cell growth in a cell viability assay.

LCLC-103H cell line = type: functional, cell-based; settings: Homo sapiens
Description: SANGER: Inhibition of human LCLC-103H cell growth in a cell viability assay.

NCI-H1693 = type: functional, cell-based; settings: Homo sapiens;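 note: growth inhibition of the human cell line, read out with a cell viability assay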
Description: SANGER: Inhibition of human NCI-H1693 cell growth in a cell viability assay.

Daoy = type: functional, cell-based; settings: Homo sapiens;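 note: daoy cell growth inhibition, read out as cell viability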
Description: SANGER: Inhibition of human Daoy cell growth in a cell viability assay.

CAL-85-1 = type: functional, cell-based; settings: Homo sapiens;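 note: growth inhibition of human CAL-85-1 cells, read out with a cell viability assay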
Description: SANGER: Inhibition of human CAL-85-1 cell growth in a cell viability assay.

T98G = type: functional, cell-based; settings: Homo sapiens;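 note: growth inhibition of T98G cells, read out by a cell viability assay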
Description: SANGER: Inhibition of human T98G cell growth in a cell viability assay.

SMILES: CC1=C(/C=C/C(C)=C/C=C/C(C)=C/C(=O)O)C(C)(C)CCC1 [TRETINOIN]
- IC50 (U2OS): > 10 µM
- IC50 (MEL-HO): > 10 µM
- IC50 (SW756): > 10 µM
- IC50 (S-117): > 10 µM
- IC50 (COR-L23): > 10 µM
- IC50 (D-392MG): > 10 µM
- IC50 (SW626): > 10 µM
- IC50 (786-0): > 10 µM
- IC50 (HPAF-II): > 10 µM
- IC50 (M14): > 10 µM
- IC50 (KP-4): > 10 µM
- IC50 (SK-MEL-30): > 10 µM
- IC50 (KU-19-19): > 10 µM
- IC50 (Panc1005): > 10 µM
- IC50 (EW-24): > 10 µM
- IC50 (HT-29): > 10 µM
- IC50 (RO82-W-1): > 10 µM
- IC50 (FaDu): > 10 µM
- IC50 (KYSE-180): 6.7 µM
- IC50 (DBTRG-05MG): > 10 µM
- IC50 (UACC-893): > 10 µM
- IC50 (SK-MEL3): > 10 µM
- IC50 (C3A): > 10 µM
- IC50 (MDA-MB-361): > 10 µM
- IC50 (LU-99A): > 10 µM
- IC50 (8305C): > 10 µM
- IC50 (PC-14): > 10 µM
- IC50 (SW780): > 10 µM
- IC50 (DOK): > 10 µM
- IC50 (COLO-792): > 10 µM
- IC50 (MIA PaCa-2): > 10 µM
- IC50 (NCI-H1573): > 10 µM
- IC50 (SAOS-2): > 10 µM
- IC50 (KYSE-450): > 10 µM
- IC50 (C-33-A): > 10 µM
- IC50 (EFM-19): > 10 µM
- IC50 (HCC1569): > 10 µM
- IC50 (Huh-7): > 10 µM
- IC50 (NCI-H1703): > 10 µM
- IC50 (Ca-Ski): > 10 µM
- IC50 (NCI-H1437): > 10 µM
- IC50 (EFO-21): > 10 µM
- IC50 (HEC-1): > 10 µM
- IC50 (NCI-H2009): > 10 µM
- IC50 (Hs-578T): > 10 µM
- IC50 (NCI-H1993): > 10 µM
- IC50 (HN): > 10 µM
- IC50 (MKN-28): > 10 µM
- IC50 (HOP-92): > 10 µM
- IC50 (LCLC-103H cell line): > 10 µM
- IC50 (NCI-H1693): > 10 µM
- IC50 (Daoy): > 10 µM
- IC50 (CAL-85-1): > 10 µM
- IC50 (T98G): > 10 µM

SMILES: NC(=O)c1ccc(N(C(N)=O)c2c(F)cccc2F)nc1-c1ccc(F)cc1F [VX-702]
- IC50 (U2OS): > 2 µM
- IC50 (MEL-HO): > 2 µM
- IC50 (SW756): > 2 µM
- IC50 (S-117): > 2 µM
- IC50 (COR-L23): > 2 µM
- IC50 (D-392MG): > 2 µM
- IC50 (SW626): > 2 µM
- IC50 (786-0): > 2 µM
- IC50 (HPAF-II): > 2 µM
- IC50 (M14): > 2 µM
- IC50 (KP-4): > 2 µM
- IC50 (SK-MEL-30): > 2 µM
- IC50 (KU-19-19): > 2 µM
- IC50 (Panc1005): > 2 µM
- IC50 (EW-24): > 2 µM
- IC50 (HT-29): > 2 µM
- IC50 (RO82-W-1): > 2 µM
- IC50 (FaDu): > 2 µM
- IC50 (KYSE-180): > 2 µM
- IC50 (DBTRG-05MG): > 2 µM
- IC50 (UACC-893): > 2 µM
- IC50 (SK-MEL3): > 2 µM
- IC50 (C3A): > 2 µM
- IC50 (MDA-MB-361): > 2 µM
- IC50 (LU-99A): > 2 µM
- IC50 (8305C): > 2 µM
- IC50 (PC-14): > 2 µM
- IC50 (SW780): > 2 µM
- IC50 (DOK): > 2 µM
- IC50 (COLO-792): > 2 µM
- IC50 (MIA PaCa-2): > 2 µM
- IC50 (NCI-H1573): > 2 µM
- IC50 (SAOS-2): > 2 µM
- IC50 (KYSE-450): > 2 µM
- IC50 (C-33-A): > 2 µM
- IC50 (EFM-19): > 2 µM
- IC50 (HCC1569): > 2 µM
- IC50 (Huh-7): > 2 µM
- IC50 (NCI-H1703): > 2 µM
- IC50 (Ca-Ski): > 2 µM
- IC50 (NCI-H1437): > 2 µM
- IC50 (EFO-21): > 2 µM
- IC50 (HEC-1): > 2 µM
- IC50 (NCI-H2009): > 2 µM
- IC50 (Hs-578T): > 2 µM
- IC50 (NCI-H1993): > 2 µM
- IC50 (HN): > 2 µM
- IC50 (MKN-28): > 2 µM
- IC50 (HOP-92): > 2 µM
- IC50 (LCLC-103H cell line): > 2 µM
- IC50 (NCI-H1693): > 2 µM
- IC50 (Daoy): > 2 µM
- IC50 (CAL-85-1): > 2 µM
- IC50 (T98G): > 2 µM

From ChEMBL document CHEMBL1201861, “Genomics of Drug Sensitity in Cancer screening data, Wellcome Trust Sanger Institute”
